The text below walks through data of patent publication US20210369583A1, “COMPOSITIONS FOR PROVIDING SKIN CARE BENEFITS AND METHODS OF USE” (Danisco US Inc., priority 2018, published 2021).

This assay has as its system Reconstructed Human Epidermis (RHE). Put plainly: Caffein diffusion test on Reconstituted Human Epidermis (RHE). In kind it is cell-based. The settings on record: for caffein diffusion through RHE: systemic treatment. The protocol:
By measuring the amount of […] […] The epidermis used was a Reconstructed Human Epidermis, called “RHE”, 0-day-old, batch no 01015-444, placed in culture conditions 37° C., 5% CO2. The assay medium was the Bioalternatives maintenance medium. RHE at Day 0 (when placed at the air/liquid interface) were placed in assay medium containing or not (control) the compounds, the combination or the reference (vitamin C at 200 μg/ml). This is referred to as a systemic application, to be differentiated from a topical application. RHE were then incubated for 7 days with treatment renewal at Day 3 and Day 5. All experimental conditions were performed in n=3. At the end of incubation (Day 7), radioactive […] ([^14[…] applied on the surface of each epidermis. The radioactivity contained in subnatants was measured by liquid scintillation after 30 minutes, 1, 2, 3, 4, 5, 6, 7 and 8 hours of incubation. The barrier function is calculated according to the below formula:

Each structure is given as a SMILES string.

Regarding `C[N+](C)(C)CC(=O)O` [betaine], the “Barrier function % Control” value (0.5 hrs, 10 mg/ml) came out at 97%; the “Barrier function % Control” value (1 hrs, 10 mg/ml) amounted to 91%; the “Barrier function % Control” value (2 hrs, 10 mg/ml) is reported as 85%; the “Barrier function % Control” value (3 hrs, 10 mg/ml) was found to be 87%; the “Barrier function % Control” value (4 hrs, 10 mg/ml) stood at 91%; the “Barrier function % Control” value (5 hrs, 10 mg/ml) came out at 92%. The “Barrier function % Control” value runs as follows: (6 hrs, 10 mg/ml) 93%; (7 hrs, 10 mg/ml) 96%; (8 hrs, 10 mg/ml) 99%. For the same compound, the “Mean [14C]-caffein (cpm)” value reads like this: (0.5 hrs, 10 mg/ml) 20507 cpm; (1 hrs, 10 mg/ml) 50356 cpm; (2 hrs, 10 mg/ml) 117502 cpm; (3 hrs, 10 mg/ml) 156579 cpm; (4 hrs, 10 mg/ml) 173278 cpm; (5 hrs, 10 mg/ml) 186588 cpm. The “Mean [14C]-caffein (cpm)” value (6 hrs, 10 mg/ml) came to 193499 cpm; the “Mean [14C]-caffein (cpm)” value (7 hrs, 10 mg/ml) stood at 196233 cpm; the “Mean [14C]-caffein (cpm)” value (8 hrs, 10 mg/ml) is 195439 cpm. Besides, the “[14C]-caffein % Control” value is, setting by setting: (0.5 hrs, 10 mg/ml) 104%; (1 hrs, 10 mg/ml) 110%; (2 hrs, 10 mg/ml) 117%; (3 hrs, 10 mg/ml) 114%; (4 hrs, 10 mg/ml) 110%; (5 hrs, 10 mg/ml) 108%. In addition, the “[14C]-caffein % Control” value came to 107% (6 hrs, 10 mg/ml); 104% (7 hrs, 10 mg/ml); 101% (8 hrs, 10 mg/ml). The “caffein diffusion through RHE” value (3 mg/ml) is listed as “induced a decrease of caffein diffusion through the RHE only after 30 minutes” and the “caffein diffusion through RHE” value (10 mg/ml) was “No inhibitory effect”.
As for `O=C1O[C@H]([C@@H](O)CO)C(O)=C1O` [vitamin C], the “caffein diffusion through RHE” value (200 μg/ml) is on record as “decreased significantly this diffusion”.
